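Assay format: 96-well plates, 48-hour exposure. GI50 = concentration required for 50% inhibition of growth.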 Calls of active or inactive are those of the source. No stated cut-off is given here; in the data, active = GI50 up to about 1.1 µM and inactive = higher.
Experiments:
Assay in all cases: DTP human tumour cell line panel, 48 h
U-251 = system: U-251
A549 = system: A549
SR = system: SR
LOX IMVI = system: LOX IMVI
HCC 2998 = system: HCC 2998
T47D = system: T47D
NCI-H460 = system: NCI-H460
Malme-3M = system: Malme-3M
TK-10 = system: TK-10
IGROV-1 = system: IGROV-1
CAKI-1 = system: CAKI-1
SK-MEL-28 = system: SK-MEL-28
SK-MEL-5 = system: SK-MEL-5
HOP-62 = system: HOP-62
COLO 205 = system: COLO 205
OVCAR-8 = system: OVCAR-8
OVCAR-3 = system: OVCAR-3
UACC-62 = system: UACC-62
RPMI-8226 = system: RPMI-8226
SK-MEL-2 = system: SK-MEL-2
SF-268 = system: SF-268
SF-295 = system: SF-295
K562 = system: K562
HCT-15 = system: HCT-15
SW-620 = system: SW-620
MOLT-4 = system: MOLT-4
SN12C = system: SN12C
PC-3 = system: PC-3
HCT-116 = system: HCT-116
HL-60 = system: HL-60
MDA-MB-435 = system: MDA-MB-435
HOP-92 = system: HOP-92
SK-OV-3 = system: SK-OV-3
A498 = system: A498
NCI-H522 = system: NCI-H522
HT-29 = system: HT-29
NCI-H226 = system: NCI-H226
CCRF-CEM = system: CCRF-CEM
EKVX = system: EKVX
M14 = system: M14
RXF 393 = system: RXF 393
KM12 = system: KM12
UACC-257 = system: UACC-257
UO-31 = system: UO-31
NCI-H23 = system: NCI-H23
SNB-19 = system: SNB-19
DU-145 = system: DU-145
ACHN = system: ACHN
786-0 = system: 786-0
OVCAR-5 = system: OVCAR-5
NCI/ADR-RES = system: NCI/ADR-RES
BT-549 = system: BT-549
MDA-MB-231 = system: MDA-MB-231
OVCAR-4 = system: OVCAR-4
SF-539 = system: SF-539
MCF7 = system: MCF7
MDA-N = system: MDA-N

Measured: GI50

COc1cc2c(cc1OCCCC(=O)Nc1cc(C(=O)Nc3cc(C(=O)NCCCN(C)C)n(C)n3)n(C)n1)N=CC1CCCN1C2=O (configuration not stated)
active: A498 0.411 µM
16.1 µM: HCT-15
inactive: U-251 17 µM | A549 36.1 µM | SR 12.9 µM | LOX IMVI 20.7 µM | HCC 2998 17.3 µM | T47D 14.2 µM | NCI-H460 14.4 µM | Malme-3M 17.2 µM | TK-10 19.7 µM | IGROV-1 12.8 µM | CAKI-1 16.8 µM | SK-MEL-28 16.7 µM | SK-MEL-5 15 µM | HOP-62 20.1 µM | COLO 205 13.5 µM | OVCAR-8 22 µM | OVCAR-3 18.5 µM | UACC-62 20.1 µM | RPMI-8226 18.5 µM | SK-MEL-2 16.4 µM | SF-268 18.3 µM | SF-295 36.1 µM | K562 14.6 µM | SW-620 15.2 µM | MOLT-4 4.79 µM | SN12C 16.1 µM | PC-3 31.8 µM | HCT-116 16 µM | HL-60 15.2 µM | MDA-MB-435 16.8 µM | HOP-92 19.1 µM | SK-OV-3 57.3 µM | NCI-H522 7 µM | HT-29 17 µM | NCI-H226 44.4 µM | CCRF-CEM 12.5 µM | EKVX 34 µM | M14 16 µM | RXF 393 16.7 µM | KM12 34.9 µM | UACC-257 17.8 µM | UO-31 16.7 µM | NCI-H23 17.2 µM | SNB-19 12.6 µM | DU-145 16.4 µM | ACHN 16.2 µM | 786-0 16.3 µM | OVCAR-5 19.4 µM | NCI/ADR-RES 20 µM | BT-549 12.1 µM | MDA-MB-231 20 µM | OVCAR-4 13.3 µM | SF-539 21.7 µM | MCF7 12.6 µM | MDA-N 16.6 µM
